In ChEMBL document CHEMBL1201862, “PubChem BioAssay data set” (2004):
Calls of active or inactive are those of the source.

What was measured:
Type in all cases: functional
[1] = target: Matrix metalloproteinase-14 (Homo sapiens, UniProt P50281); test: Dose Response confirmation of uHTS hits for a small molecule inhibitors of MT1-MMP activation in a fluorescence assay set 2.
[2] = target: Induced myeloid leukemia cell differentiation protein Mcl-1 (Homo sapiens, UniProt Q07820)
[3] = target: Fructose-bisphosphate aldolase (Mycobacterium tuberculosis, UniProt P9WQA3); test: Fluorescence-based biochemical high throughput dose response assay for inhibitors of the fructose-bisphosphate aldolase (FBA) of M. tuberculosis.
Fructose-bisphosphate aldolase, sequence (P9WQA3 whole entry, the tested form may be a part): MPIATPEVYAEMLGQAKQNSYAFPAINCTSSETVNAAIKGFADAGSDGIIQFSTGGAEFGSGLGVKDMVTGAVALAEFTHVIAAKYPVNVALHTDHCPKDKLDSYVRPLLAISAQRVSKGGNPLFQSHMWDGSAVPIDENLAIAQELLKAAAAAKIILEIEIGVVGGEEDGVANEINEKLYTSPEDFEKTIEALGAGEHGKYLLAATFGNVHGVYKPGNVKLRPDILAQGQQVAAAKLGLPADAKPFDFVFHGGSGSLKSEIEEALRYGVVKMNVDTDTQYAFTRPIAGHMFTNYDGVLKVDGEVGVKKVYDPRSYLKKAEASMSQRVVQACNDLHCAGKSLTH

[4] = target: T1, Sentrin-specific protease 1 (Homo sapiens, UniProt Q9P0U3); test: Dose response confirmation of small molecule inhibitors of the catalytic domain of the SUMO protease, SENP1 in a FRET assay.; settings: read-out: IC50_Mean
T1 sequence (Q9P0U3 whole entry, the tested form may be a part): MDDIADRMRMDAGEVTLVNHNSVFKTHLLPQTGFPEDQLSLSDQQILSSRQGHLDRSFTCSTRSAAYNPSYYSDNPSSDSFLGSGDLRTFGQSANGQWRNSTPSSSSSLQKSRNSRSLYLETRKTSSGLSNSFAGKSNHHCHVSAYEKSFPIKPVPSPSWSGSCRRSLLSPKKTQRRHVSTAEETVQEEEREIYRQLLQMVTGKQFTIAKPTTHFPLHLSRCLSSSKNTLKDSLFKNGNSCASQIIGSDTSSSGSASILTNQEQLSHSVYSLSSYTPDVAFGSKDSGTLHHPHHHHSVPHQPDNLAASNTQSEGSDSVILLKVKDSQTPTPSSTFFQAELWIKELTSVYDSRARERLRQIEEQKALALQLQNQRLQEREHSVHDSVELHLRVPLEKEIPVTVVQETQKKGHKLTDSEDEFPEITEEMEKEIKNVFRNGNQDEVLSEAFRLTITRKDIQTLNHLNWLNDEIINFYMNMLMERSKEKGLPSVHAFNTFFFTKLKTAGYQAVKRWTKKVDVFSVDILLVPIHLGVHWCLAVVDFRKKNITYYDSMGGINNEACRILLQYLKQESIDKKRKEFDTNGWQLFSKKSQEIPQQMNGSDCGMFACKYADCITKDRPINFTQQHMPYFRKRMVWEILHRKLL

[5] = target: T1, Sentrin-specific protease 1; test: SENP1 catalytic domain blockers, concentration series – biochemical, kinetic FRET, dose response (AID 651697); settings: read-out: IC50_Mean
[6] = target: T2, ATP-dependent translocase ABCB1 (Homo sapiens, UniProt P08183); test: P-gp JC-1 efflux blockade concentration-response – Jurkat-DNR cells, flow cytometry, set 2, dose response (AID 504569); settings: read-out: EC50_MICROM_;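 note: potency of pump inhibitors that raise cellular JC-1 green fluorescence up to the nicardipine level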
T2 sequence (P08183 whole entry): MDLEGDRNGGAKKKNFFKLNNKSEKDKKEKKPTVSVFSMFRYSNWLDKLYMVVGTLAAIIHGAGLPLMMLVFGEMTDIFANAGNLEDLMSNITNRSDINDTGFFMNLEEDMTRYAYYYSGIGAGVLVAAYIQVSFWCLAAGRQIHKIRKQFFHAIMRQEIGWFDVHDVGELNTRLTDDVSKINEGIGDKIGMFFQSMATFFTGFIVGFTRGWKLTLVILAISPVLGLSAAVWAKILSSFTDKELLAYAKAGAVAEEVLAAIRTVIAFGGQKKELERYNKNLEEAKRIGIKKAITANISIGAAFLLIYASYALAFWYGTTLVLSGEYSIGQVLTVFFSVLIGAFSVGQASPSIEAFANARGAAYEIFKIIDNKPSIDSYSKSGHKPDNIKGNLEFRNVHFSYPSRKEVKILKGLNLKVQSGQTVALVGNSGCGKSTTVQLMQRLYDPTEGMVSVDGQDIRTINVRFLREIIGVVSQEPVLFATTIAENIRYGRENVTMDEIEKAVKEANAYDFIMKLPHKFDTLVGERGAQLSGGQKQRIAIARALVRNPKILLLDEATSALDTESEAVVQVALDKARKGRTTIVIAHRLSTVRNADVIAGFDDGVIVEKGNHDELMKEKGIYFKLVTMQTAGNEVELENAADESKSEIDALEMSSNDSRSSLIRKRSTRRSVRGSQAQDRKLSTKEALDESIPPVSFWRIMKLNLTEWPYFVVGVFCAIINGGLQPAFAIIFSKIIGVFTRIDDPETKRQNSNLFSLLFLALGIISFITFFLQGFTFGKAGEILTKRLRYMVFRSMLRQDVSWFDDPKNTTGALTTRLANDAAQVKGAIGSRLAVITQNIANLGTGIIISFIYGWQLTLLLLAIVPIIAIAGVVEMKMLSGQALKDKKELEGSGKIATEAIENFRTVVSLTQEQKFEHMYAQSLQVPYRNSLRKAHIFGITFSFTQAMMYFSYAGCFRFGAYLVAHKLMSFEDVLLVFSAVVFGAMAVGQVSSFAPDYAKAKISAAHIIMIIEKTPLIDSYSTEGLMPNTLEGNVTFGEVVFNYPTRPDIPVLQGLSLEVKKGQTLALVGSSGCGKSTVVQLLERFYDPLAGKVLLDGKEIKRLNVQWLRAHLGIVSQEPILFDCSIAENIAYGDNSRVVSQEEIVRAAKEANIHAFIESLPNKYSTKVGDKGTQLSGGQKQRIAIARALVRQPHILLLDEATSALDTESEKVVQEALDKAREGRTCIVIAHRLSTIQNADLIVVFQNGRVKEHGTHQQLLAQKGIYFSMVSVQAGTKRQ

[7] = target: T2, ATP-dependent translocase ABCB1; test: inhibition of BCRP-mediated JC-1 efflux – Ig-MXP3 cells, flow cytometry, set 2, dose response (AID 504566); settings: read-out: EC50_MICROM_;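 note: flow cytometry median green fluorescence of retained JC-1 dye; potency of efflux pump inhibition measured as rising substrate retention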
[8] = cytotoxicity in HEK293 background cells – cell-based, dry powder, set 2, counter-screen for EBV LMP1 inhibitor project, dose response (AID 624374)
[9] = viability loss in LCL cells – cell-based, plate reader, dry powder, set 2, cytotoxicity control, dose response (AID 624367)
[10] = inhibitors of EBV LMP1 NF-kappaB signaling – cell-based, luciferase reporter, luminescence, dry powder, set 2, dose response (AID 624376)
Albumin = Albumin (Bos taurus, UniProt P02769); test: Counterscreen for inhibitors of T-cell receptor (TCR)-CD3 interaction: Fluorescence-based biochemical high throughput dose response assay to identify inhibitors of T-cell receptor (TCR)-CD3 interaction using a TAMRA-labeled BSA probe.
Albumin, sequence (P02769 whole entry): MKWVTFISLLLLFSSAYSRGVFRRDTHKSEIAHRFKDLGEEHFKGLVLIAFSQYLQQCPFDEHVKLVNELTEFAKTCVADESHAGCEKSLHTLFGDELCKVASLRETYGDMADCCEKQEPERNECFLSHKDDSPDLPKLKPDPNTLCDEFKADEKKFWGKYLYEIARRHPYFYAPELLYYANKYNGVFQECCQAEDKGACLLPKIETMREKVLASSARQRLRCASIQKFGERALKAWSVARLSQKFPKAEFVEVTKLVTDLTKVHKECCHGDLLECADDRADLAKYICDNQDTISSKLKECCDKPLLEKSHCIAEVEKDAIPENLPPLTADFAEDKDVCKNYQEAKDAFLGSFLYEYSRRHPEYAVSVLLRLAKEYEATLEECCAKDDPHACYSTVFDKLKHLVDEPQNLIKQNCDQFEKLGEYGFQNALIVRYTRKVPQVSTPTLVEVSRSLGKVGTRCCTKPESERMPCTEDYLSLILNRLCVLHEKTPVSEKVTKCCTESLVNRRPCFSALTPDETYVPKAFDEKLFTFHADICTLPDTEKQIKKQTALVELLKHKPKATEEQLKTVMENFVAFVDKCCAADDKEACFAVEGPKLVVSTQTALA

Induced myeloid leukemia cell differentiation protein Mcl-1, sequence (Q07820 whole entry): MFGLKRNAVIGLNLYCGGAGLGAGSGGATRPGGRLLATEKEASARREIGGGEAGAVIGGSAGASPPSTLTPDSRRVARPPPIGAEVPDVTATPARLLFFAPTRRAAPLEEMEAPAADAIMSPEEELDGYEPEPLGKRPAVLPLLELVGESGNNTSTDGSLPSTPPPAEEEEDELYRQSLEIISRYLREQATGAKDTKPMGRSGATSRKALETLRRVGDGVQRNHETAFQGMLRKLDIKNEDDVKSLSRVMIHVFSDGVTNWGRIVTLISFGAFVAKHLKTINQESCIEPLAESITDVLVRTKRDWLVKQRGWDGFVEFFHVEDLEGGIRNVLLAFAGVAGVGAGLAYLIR

For Cc1ccc(C(=O)NNc2c3ccccc3nc3ccccc23)cc1, the IC50 [1] was > 80 µM (inactive) and the IC50 [2] was 5.38 µM (active).

In the case of CNc1ccc2ncc(-c3ccc(OC)c(OC)c3)n2n1, the IC50 [3] is reported as 1.69 µM (active).

In the case of Oc1nc2cc3ccccc3cc2nc1-c1nnnn1C1CCCC1, the IC50 [4] is reported as 1.05 µM (active) and the IC50 [5] is reported as 2.21 µM (active).

For COc1ccc(-c2cc3nc(-c4ccccc4)cc(N4CCN(C(=O)c5ccccc5)CC4)n3n2)cc1, the EC50 [6] was 0.69 µM (active) and the EC50 [7] was 0.72 µM (active).

Work on O=C(C[C@H]1C[C@H]2c3cc(NS(=O)(=O)c4ccc(F)cc4)ccc3O[C@H]2[C@H](CO)O1)NCc1ccc(Oc2ccccc2)cc1 yielded an AbsAC35 [8] of 70.4 µM and an AbsAC35 [9] of 45.43 µM.

Molecule CC(C)(C)[S@@+]([O-])N1Cc2cc(C(=O)NCc3ccccn3)nc(-c3cccc(-c4ccccc4F)c3)c2[C@H]1CCO has an AbsAC35 [10] of 49.61 µM.

For Cn1c(SCC(=O)NNC(=O)c2ccccc2O)nnc1-c1ccccc1, the IC50 (Albumin) was > 94.2 µM (inactive).
